# System: phenylephrine-precontracted vessels (thoracic aorta or femoral vein rings)
# Assay: in vitro vascular reactivity test: relaxation of phenylephrine-precontracted aorta or vein rings
# Settings: at 100 μM; relative to phenylephrine (0.1 μM)-induced contractile tone
# From the text: The determination of the nitrogen monoxide-releasing properties of a compound, be it by enzymatic or non-enzymatic action, can be carried out by means of in vitro vascular reactivity tests. The in vitro vascular reactivity test measures the ability of the released nitrogen monoxide to relax a pretensioned aorta ring or vein ring which is kept in an organ chamber. […] The thoracic aorta or the femoral vein is isolated from sacrificed and exsanguinated Wistar rats and cut up to give rings 2 mm long. The vascular rings are stored in organ chambers. Changes in the development of tension after the action of compounds are recorded by an isometric signal transmitter, which is connected to a computerized detection system. The computer program analyses time curves, period and size amounts between contractions.
row,Compound,"relaxation, percentage of the maximal vessel relaxation achieved with sodium nitroprusside (SNP) [%]"
1,COCCCN1CCOc2ccc(CO[C@H]3CNC[C@@H](OC[C@@H](C)O[N+](=O)[O-])[C@@H]3c3ccc(COCCOC)cc3)cc21 [Example 6],15
2,"COCCCN1CCOc2ccc(CO[C@H]3CNC[C@@H](OC[C@H](O)CO[N+](=O)[O-])[C@@H]3c3ccc(COC[C@@H](C)COC)cc3)cc21 [Example 8, (S)-1-{(3S,4R,5R)-4-[4-((S)-3-Methoxy-2-methyl-Propoxymethyl)phenyl]-5-[4-(3-methoxypropyl)-3,4-dihydro-2H-benzo[1,4]oxazin-6-ylmethoxy]-piperidin-3-yloxy}-3-nitrooxypropan-2-ol]",20
3,"COCCCN1CCOc2ccc(CO[C@H]3CNC[C@@H](O[N+](=O)[O-])[C@@H]3c3ccc(COC[C@@H](C)COC)cc3)cc21 [Example 9, 6-{(3R,4R,5S)-4-[4-((S)-3-Methoxy-2-methylpropoxy-methyl)phenyl]-5-nitrooxypiperidin-3-yloxy-methyl}-4-(3-methoxypropyl)-3,4-dihydro-2H-benzo-[1,4]oxazine]",8
4,COCCCN1CCOc2ccc(CO[C@H]3CNC[C@@H](OC[C@@H](COC)O[N+](=O)[O-])[C@@H]3c3ccc(COC[C@@H](C)COC)cc3)cc21 [Example 14],25
5,"COCCCN1CCOc2ccc(CO[C@H]3CNC[C@@H](CO[N+](=O)[O-])[C@@H]3c3ccc(COC[C@@H](C)COC)cc3)cc21 [Example 21, 6-{(3R,4R,5S)-4-[4-((S)-3-Methoxy-2-methyl-propoxymethyl)phenyl]-5-nitro-oxymethylpiperidin-3-yloxymethyl}-4-(3-methoxypropyl)-3,4-dihydro-2H-benzo[1,4]oxazine]",20
6,"COCCCN1CCOc2ccc(CO[C@H]3CNC[C@@H](OC[C@H](COC)O[N+](=O)[O-])[C@@H]3c3ccc(COC[C@@H](C)COC)cc3)cc21 [Example 34, 6-[(3R,4R,5S)-4-[4-((S)-3-Methoxy-2-methylpropoxy-methyl)phenyl]-5-((S)-3-methoxy-2-nitrooxy-propoxy)piperidin-3-yloxymethyl]-4-(3-methoxy-propyl)-3,4-dihydro-2H-benzo[1,4]oxazine]",8
